Values after ≈ are worked out from the molar mass of the structure shown. Like-named read-outs stand apart in the source and are kept apart here.
Tests used:
panel of 49 kinases = test: Selectivity score from the kinase panel; format: biochemical; conditions: 1000 nM
MINK1 = molecular target: T1, MINK1 (Homo sapiens, UniProt Q8N4C8); test: Kinase panel profiling: MINK1; format: biochemical; conditions: ATP equal to KM
T1 construct: purchased Thermo Fisher Scientific (Invitrogen) SelectScreen (Z'-LYTE)

[1] = Kinetic solubility, spectrophotometric; format: physicochemical; conditions: aqueous buffer, kinetic from dmso stock, spectrophotometrically at pH 7.4 in HEPES buffer
ROCK1 = ROCK1 (Homo sapiens, UniProt Q13464); test: Kinase panel profiling: ROCK1; format: biochemical; conditions: ATP equal to KM
Chain of ROCK1 (Q13464 whole entry): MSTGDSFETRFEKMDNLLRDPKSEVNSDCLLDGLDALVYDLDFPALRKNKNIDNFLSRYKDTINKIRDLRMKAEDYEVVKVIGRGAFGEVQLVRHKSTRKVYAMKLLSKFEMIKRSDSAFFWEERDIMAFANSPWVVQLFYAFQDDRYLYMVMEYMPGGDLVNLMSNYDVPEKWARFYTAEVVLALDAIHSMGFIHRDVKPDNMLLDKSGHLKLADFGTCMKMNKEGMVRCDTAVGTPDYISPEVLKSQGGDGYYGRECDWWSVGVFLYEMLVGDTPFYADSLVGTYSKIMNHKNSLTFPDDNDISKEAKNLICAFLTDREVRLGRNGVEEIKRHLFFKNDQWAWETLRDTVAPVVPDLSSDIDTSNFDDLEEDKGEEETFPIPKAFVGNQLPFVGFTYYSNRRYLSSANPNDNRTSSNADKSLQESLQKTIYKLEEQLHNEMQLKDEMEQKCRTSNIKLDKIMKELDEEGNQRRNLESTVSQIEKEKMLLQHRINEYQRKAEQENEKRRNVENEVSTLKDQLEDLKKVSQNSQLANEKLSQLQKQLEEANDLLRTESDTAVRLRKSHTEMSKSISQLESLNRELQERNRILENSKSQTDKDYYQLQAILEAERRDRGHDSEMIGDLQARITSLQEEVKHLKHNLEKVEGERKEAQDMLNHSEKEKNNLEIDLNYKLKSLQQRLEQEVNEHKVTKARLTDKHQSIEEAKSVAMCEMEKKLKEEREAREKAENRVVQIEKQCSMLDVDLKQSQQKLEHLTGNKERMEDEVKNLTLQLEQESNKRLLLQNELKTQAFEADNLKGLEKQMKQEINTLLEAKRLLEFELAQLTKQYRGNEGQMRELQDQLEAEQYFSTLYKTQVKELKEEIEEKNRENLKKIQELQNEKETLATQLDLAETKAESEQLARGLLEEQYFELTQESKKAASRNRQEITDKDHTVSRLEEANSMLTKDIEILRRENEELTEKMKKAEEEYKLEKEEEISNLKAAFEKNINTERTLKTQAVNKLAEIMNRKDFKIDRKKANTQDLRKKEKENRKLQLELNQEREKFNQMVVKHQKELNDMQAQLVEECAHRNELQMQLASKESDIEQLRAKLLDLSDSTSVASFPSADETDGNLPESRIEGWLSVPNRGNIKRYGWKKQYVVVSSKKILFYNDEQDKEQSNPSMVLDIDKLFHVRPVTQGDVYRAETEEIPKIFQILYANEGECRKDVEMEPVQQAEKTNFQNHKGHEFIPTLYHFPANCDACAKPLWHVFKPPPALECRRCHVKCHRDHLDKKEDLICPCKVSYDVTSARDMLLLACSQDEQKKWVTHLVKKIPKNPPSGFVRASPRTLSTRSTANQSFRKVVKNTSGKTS

DAPK1 = molecular target: T2, DAPK1 (Homo sapiens, UniProt P53355); test: Kinase panel profiling: DAPK1; format: biochemical; conditions: ATP equal to KM
T2 construct: purchased Thermo Fisher Scientific (Invitrogen) SelectScreen (Z'-LYTE)
T2 sequence (P53355 whole entry): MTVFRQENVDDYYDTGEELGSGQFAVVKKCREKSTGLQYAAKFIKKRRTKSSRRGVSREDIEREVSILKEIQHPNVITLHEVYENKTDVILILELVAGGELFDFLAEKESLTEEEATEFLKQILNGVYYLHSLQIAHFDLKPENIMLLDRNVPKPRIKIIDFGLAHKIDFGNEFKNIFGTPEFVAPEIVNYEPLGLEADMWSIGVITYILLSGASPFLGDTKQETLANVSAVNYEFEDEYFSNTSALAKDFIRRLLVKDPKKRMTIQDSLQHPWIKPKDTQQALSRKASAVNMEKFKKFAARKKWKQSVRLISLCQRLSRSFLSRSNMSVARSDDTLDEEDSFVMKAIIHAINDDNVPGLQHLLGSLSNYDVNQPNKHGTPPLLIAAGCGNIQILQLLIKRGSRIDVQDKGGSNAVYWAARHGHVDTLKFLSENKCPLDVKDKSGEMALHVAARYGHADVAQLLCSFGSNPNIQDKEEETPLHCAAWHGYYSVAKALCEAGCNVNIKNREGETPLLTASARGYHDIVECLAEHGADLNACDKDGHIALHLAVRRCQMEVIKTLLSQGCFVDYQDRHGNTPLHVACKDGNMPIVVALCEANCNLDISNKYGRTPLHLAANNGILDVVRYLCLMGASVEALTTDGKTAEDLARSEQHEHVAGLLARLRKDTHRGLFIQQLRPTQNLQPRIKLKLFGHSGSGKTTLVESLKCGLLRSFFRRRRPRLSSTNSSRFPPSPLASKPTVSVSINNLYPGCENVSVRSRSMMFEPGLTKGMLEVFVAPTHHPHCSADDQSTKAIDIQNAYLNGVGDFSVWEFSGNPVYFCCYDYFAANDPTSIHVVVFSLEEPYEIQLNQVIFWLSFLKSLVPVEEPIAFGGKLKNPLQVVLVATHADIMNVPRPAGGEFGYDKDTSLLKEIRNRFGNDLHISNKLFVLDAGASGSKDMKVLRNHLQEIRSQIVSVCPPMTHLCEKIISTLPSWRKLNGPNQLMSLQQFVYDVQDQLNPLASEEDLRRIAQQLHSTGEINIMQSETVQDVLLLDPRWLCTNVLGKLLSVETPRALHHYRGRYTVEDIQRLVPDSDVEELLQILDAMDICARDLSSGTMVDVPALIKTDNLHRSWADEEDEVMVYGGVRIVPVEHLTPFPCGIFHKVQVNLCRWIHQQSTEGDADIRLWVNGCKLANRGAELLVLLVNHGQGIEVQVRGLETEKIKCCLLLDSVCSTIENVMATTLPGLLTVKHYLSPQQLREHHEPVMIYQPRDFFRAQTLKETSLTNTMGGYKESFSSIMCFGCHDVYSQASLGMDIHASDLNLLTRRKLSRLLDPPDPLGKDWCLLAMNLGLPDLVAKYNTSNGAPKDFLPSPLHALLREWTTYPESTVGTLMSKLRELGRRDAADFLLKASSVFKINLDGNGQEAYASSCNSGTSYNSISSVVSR

CAMK1D (CaMKI delta) = molecular target: T3, CAMK1D (CaMKI delta) (Homo sapiens, UniProt Q8IU85); test: Kinase panel profiling: CAMK1D; format: biochemical; conditions: ATP equal to KM
T3 construct: purchased Thermo Fisher Scientific (Invitrogen) SelectScreen (Z'-LYTE)

YES1 = YES1 (Homo sapiens, UniProt P07947); test: Kinase panel profiling: YES1; format: biochemical; conditions: ATP equal to KM
AXL = molecular target: T4, AXL (Homo sapiens, UniProt P30530); test: Kinase panel profiling: AXL; format: biochemical; conditions: ATP equal to KM
T4 construct: purchased Thermo Fisher Scientific (Invitrogen) SelectScreen (Z'-LYTE)

PLK1 = PLK1 (Homo sapiens, UniProt P53350); test: Kinase panel profiling: PLK1; format: biochemical; conditions: ATP equal to KM
ERBB2 (HER2) = molecular target: T5, ERBB2 (HER2) (Homo sapiens, UniProt P04626); test: Kinase panel profiling: ERBB2; format: biochemical; conditions: ATP equal to KM
T5 construct: purchased Thermo Fisher Scientific (Invitrogen) SelectScreen (Z'-LYTE)

JAK2 = molecular target: T6, JAK2 (Homo sapiens, UniProt O60674); test: Kinase panel profiling: JAK2; format: biochemical; conditions: ATP equal to KM
T6 construct: purchased Thermo Fisher Scientific (Invitrogen) SelectScreen (Z'-LYTE)
T6 sequence (O60674 whole entry): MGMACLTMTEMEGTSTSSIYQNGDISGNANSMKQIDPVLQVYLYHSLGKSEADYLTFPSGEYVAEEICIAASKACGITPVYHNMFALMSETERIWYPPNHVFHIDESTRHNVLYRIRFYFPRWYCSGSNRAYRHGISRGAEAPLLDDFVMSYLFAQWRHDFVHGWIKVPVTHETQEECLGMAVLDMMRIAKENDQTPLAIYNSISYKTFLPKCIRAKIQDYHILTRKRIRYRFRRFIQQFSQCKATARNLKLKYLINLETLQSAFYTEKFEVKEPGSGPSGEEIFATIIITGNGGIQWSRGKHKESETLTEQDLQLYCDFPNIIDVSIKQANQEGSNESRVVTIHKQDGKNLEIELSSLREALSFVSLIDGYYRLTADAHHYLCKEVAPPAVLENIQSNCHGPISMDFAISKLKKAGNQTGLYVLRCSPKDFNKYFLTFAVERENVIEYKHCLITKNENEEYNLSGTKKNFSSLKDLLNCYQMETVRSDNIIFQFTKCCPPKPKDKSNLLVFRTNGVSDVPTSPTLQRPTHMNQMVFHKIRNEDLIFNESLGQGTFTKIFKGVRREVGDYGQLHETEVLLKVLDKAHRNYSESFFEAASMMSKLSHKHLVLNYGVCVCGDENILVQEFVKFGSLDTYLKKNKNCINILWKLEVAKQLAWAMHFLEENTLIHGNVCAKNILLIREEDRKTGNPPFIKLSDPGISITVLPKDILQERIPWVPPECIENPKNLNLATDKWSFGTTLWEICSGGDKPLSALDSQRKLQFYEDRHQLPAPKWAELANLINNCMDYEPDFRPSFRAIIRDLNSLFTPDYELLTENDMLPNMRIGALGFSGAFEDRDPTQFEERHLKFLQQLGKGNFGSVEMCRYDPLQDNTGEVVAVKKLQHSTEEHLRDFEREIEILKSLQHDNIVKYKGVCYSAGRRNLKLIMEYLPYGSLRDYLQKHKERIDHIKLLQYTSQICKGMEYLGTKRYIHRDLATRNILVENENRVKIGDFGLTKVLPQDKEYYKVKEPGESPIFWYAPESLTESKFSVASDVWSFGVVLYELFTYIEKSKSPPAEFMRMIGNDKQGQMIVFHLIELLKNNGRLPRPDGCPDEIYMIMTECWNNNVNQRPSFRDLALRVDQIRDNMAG

BTK = molecular target: T7, BTK (Homo sapiens, UniProt Q06187); test: Kinase panel profiling: BTK; format: biochemical; conditions: ATP equal to KM
T7 construct: purchased Thermo Fisher Scientific (Invitrogen) SelectScreen (Z'-LYTE)

CSF1R Ba/F3 cells = test: Cell viability assay, Ba/F3 cells engineered to be dependent on CSF1R; format: cell-based; conditions: Mus musculus, BaF3, Ba/F3 cells dependent on CSF1R, duplicate measurements
[2] = Mouse liver microsome intrinsic clearance, Phase I; format: in vitro ADME; conditions: in vitro intrinsic clearance
KIT = molecular target: T8, KIT (Homo sapiens, UniProt P10721); test: Kinase panel profiling: KIT; format: biochemical; conditions: ATP equal to KM
T8 construct: purchased Thermo Fisher Scientific (Invitrogen) SelectScreen (Z'-LYTE)

RET = RET (Homo sapiens, UniProt P07949); test: Kinase panel profiling: RET; format: biochemical; conditions: ATP equal to KM
ERBB4 (HER4) = molecular target: T9, ERBB4 (HER4) (Homo sapiens, UniProt Q15303); test: Kinase panel profiling: ERBB4; format: biochemical; conditions: ATP equal to KM
T9 construct: purchased Thermo Fisher Scientific (Invitrogen) SelectScreen (Z'-LYTE)

ABL2 (Arg) = molecular target: T10, ABL2 (Arg) (Homo sapiens, UniProt P42684); test: Kinase panel profiling: ABL2; format: biochemical; conditions: ATP equal to KM
T10 construct: purchased Thermo Fisher Scientific (Invitrogen) SelectScreen (Z'-LYTE)

FER = molecular target: T11, FER (Homo sapiens, UniProt P16591); test: Kinase panel profiling: FER; format: biochemical; conditions: ATP equal to KM
T11 construct: purchased Thermo Fisher Scientific (Invitrogen) SelectScreen (Z'-LYTE)

LYN B = molecular target: T12, LYN B (Homo sapiens, UniProt P07948); test: Kinase panel profiling: LYN B; format: biochemical; conditions: ATP equal to KM
T12 construct: purchased Thermo Fisher Scientific (Invitrogen) SelectScreen (Z'-LYTE)
T12 sequence (P07948 1-491 isoform P07948-2): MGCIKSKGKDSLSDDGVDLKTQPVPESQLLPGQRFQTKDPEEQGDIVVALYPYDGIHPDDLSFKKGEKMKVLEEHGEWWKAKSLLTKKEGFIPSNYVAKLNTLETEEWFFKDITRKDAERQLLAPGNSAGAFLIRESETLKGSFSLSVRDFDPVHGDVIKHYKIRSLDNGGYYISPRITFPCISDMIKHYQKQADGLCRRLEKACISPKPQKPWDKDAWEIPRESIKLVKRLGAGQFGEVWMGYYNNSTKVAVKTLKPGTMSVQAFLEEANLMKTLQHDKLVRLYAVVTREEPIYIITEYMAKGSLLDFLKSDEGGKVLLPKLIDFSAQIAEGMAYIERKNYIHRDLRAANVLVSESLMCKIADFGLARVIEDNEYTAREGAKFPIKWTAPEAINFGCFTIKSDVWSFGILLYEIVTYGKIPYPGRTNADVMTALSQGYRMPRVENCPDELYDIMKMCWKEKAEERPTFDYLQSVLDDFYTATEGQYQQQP

FGFR1 = molecular target: T13, FGFR1 (Homo sapiens, UniProt P11362); test: Kinase panel profiling: FGFR1; format: biochemical; conditions: ATP equal to KM
T13 construct: purchased Thermo Fisher Scientific (Invitrogen) SelectScreen (Z'-LYTE)

BLK = molecular target: T14, BLK (Homo sapiens, UniProt P51451); test: Kinase panel profiling: BLK; format: biochemical; conditions: ATP equal to KM
T14 construct: purchased Thermo Fisher Scientific (Invitrogen) SelectScreen (Z'-LYTE)

PDGFRB (PDGFR beta) = PDGFRB (PDGFR beta) (Homo sapiens, UniProt P09619); test: Kinase panel profiling: PDGFRB; format: biochemical; conditions: ATP equal to KM
LTK (TYK1) = molecular target: T15, LTK (TYK1) (Homo sapiens, UniProt P29376); test: Kinase panel profiling: LTK; format: biochemical; conditions: ATP equal to KM
T15 construct: purchased Thermo Fisher Scientific (Invitrogen) SelectScreen (Z'-LYTE)

AURKB (Aurora B) = molecular target: T16, AURKB (Aurora B) (Homo sapiens, UniProt Q96GD4); test: Kinase panel profiling: AURKB; format: biochemical; conditions: ATP equal to KM
T16 construct: purchased Thermo Fisher Scientific (Invitrogen) SelectScreen (Z'-LYTE)
T16 sequence (Q96GD4 whole entry): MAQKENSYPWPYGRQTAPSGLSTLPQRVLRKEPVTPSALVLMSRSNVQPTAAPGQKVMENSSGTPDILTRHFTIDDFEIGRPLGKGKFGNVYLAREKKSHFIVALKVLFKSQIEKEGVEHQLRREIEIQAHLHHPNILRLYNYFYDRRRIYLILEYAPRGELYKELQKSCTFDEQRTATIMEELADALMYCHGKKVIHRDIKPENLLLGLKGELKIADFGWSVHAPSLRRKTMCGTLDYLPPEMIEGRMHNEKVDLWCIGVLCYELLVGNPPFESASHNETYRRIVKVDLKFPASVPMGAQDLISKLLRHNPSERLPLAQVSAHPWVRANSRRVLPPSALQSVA

FLT4 (VEGFR3) = molecular target: T17, FLT4 (VEGFR3) (Homo sapiens, UniProt P35916); test: Kinase panel profiling: FLT4; format: biochemical; conditions: ATP equal to KM
T17 construct: purchased Thermo Fisher Scientific (Invitrogen) SelectScreen (Z'-LYTE)

CSF1R = CSF1R (Homo sapiens, UniProt P07333); test: CSF1R enzymatic IC50, Z-LYTE assay platform; format: biochemical
PAK1 = molecular target: T18, PAK1 (Homo sapiens, UniProt Q13153); test: Kinase panel profiling: PAK1; format: biochemical; conditions: ATP equal to KM
T18 construct: purchased Thermo Fisher Scientific (Invitrogen) SelectScreen (Z'-LYTE)

FRAP1 (mTOR) = molecular target: T19, FRAP1 (mTOR) (Homo sapiens, UniProt P42345); test: Kinase panel profiling: FRAP1; format: biochemical; conditions: ATP equal to KM
T19 construct: purchased Thermo Fisher Scientific (Invitrogen) SelectScreen (Z'-LYTE)

GSK3B (GSK3 beta) = molecular target: T20, GSK3B (GSK3 beta) (Homo sapiens, UniProt P49841); test: Kinase panel profiling: GSK3B; format: biochemical; conditions: ATP equal to KM
T20 construct: purchased Thermo Fisher Scientific (Invitrogen) SelectScreen (Z'-LYTE)

[3] = 1000 nM test concentration, read-out: Average inhibition (%)
[4] = 1000 nM, first data point, read-out: Inhibition (%)
[5] = 1000 nM, second data point, read-out: Inhibition (%)

selectivity score (S-score) (panel of 49 kinases; 30% inhibition as threshold): 0.51
selectivity score (S-score) (panel of 49 kinases; 50% inhibition as threshold): 0.35
inhibition at 1 µM (MINK1; [3]): 76%
inhibition at 1 µM (MINK1; [4]): 75%
inhibition at 1 µM (MINK1; [5]): 77%
solubility kinetic [1]: 3.1 µM (≈ 1.27 µg/mL)
inhibition at 1 µM (ROCK1; [3]): 0%
inhibition at 1 µM (ROCK1; [4]): 2%
inhibition at 1 µM (ROCK1; [5]): -2%
inhibition at 1 µM (DAPK1; [3]): 4%
inhibition at 1 µM (DAPK1; [4]): 13%
inhibition at 1 µM (DAPK1; [5]): -5%
inhibition at 1 µM (CAMK1D (CaMKI delta); [3]): 5%
inhibition at 1 µM (CAMK1D (CaMKI delta); [4]): 2%
inhibition at 1 µM (CAMK1D (CaMKI delta); [5]): 9%
inhibition at 1 µM (YES1; [3]): 101%
inhibition at 1 µM (YES1; [4]): 102%
inhibition at 1 µM (YES1; [5]): 99%
inhibition at 1 µM (AXL; [3]): 16%
inhibition at 1 µM (AXL; [4]): 16%
inhibition at 1 µM (PLK1; [3]): 6%
inhibition at 1 µM (PLK1; [4]): 5%
inhibition at 1 µM (PLK1; [5]): 6%
inhibition at 1 µM (ERBB2 (HER2); [3]): 32%
inhibition at 1 µM (ERBB2 (HER2); [4]): 33%
inhibition at 1 µM (ERBB2 (HER2); [5]): 32%
inhibition at 1 µM (JAK2; [3]): 26%
inhibition at 1 µM (JAK2; [4]): 25%
inhibition at 1 µM (JAK2; [5]): 26%
inhibition at 1 µM (BTK; [3]): 46%
inhibition at 1 µM (BTK; [4]): 50%
inhibition at 1 µM (BTK; [5]): 42%
IC50 (CSF1R Ba/F3 cells): 300 nM
MLM [2]: 295 µL/min/mg
inhibition at 1 µM (KIT; [3]): 57%
inhibition at 1 µM (KIT; [4]): 56%
inhibition at 1 µM (KIT; [5]): 58%
inhibition at 1 µM (RET; [3]): 29%
inhibition at 1 µM (RET; [4]): 28%
inhibition at 1 µM (RET; [5]): 30%
inhibition at 1 µM (ERBB4 (HER4); [3]): 14%
inhibition at 1 µM (ERBB4 (HER4); [4]): 13%
inhibition at 1 µM (ERBB4 (HER4); [5]): 15%
inhibition at 1 µM (ABL2 (Arg); [3]): 100%
inhibition at 1 µM (ABL2 (Arg); [4]): 100%
inhibition at 1 µM (FER; [3]): 15%
inhibition at 1 µM (FER; [4]): 16%
inhibition at 1 µM (FER; [5]): 14%
inhibition at 1 µM (LYN B; [3]): 76%
inhibition at 1 µM (LYN B; [4]): 74%
inhibition at 1 µM (LYN B; [5]): 79%
inhibition at 1 µM (FGFR1; [3]): 9%
inhibition at 1 µM (FGFR1; [4]): 9%
inhibition at 1 µM (FGFR1; [5]): 8%
inhibition at 1 µM (BLK; [3]): 69%
inhibition at 1 µM (BLK; [4]): 69%
inhibition at 1 µM (PDGFRB (PDGFR beta); [3]): 34%
inhibition at 1 µM (PDGFRB (PDGFR beta); [4]): 32%
inhibition at 1 µM (PDGFRB (PDGFR beta); [5]): 35%
inhibition at 1 µM (LTK (TYK1); [3]): 25%
inhibition at 1 µM (LTK (TYK1); [4]): 25%
inhibition at 1 µM (AURKB (Aurora B); [3]): 47%
inhibition at 1 µM (AURKB (Aurora B); [4]): 47%
inhibition at 1 µM (AURKB (Aurora B); [5]): 46%
inhibition at 1 µM (FLT4 (VEGFR3); [3]): 16%
inhibition at 1 µM (FLT4 (VEGFR3); [4]): 15%
inhibition at 1 µM (FLT4 (VEGFR3); [5]): 16%
Hill coefficient (CSF1R; Z-LYTE CSF1R IC50 curve): 0.903
IC50 (CSF1R; Z-LYTE, 10-point titrations in duplicates, ATP equal to KM ca. 10 µM, read-out: CSF1R enz. IC50): 0.4 ± 0.2 nM
inhibition at 1 µM (PAK1; [3]): 2%
inhibition at 1 µM (PAK1; [4]): 4%
inhibition at 1 µM (PAK1; [5]): 0%
inhibition at 1 µM (FRAP1 (mTOR); [3]): -3%
inhibition at 1 µM (FRAP1 (mTOR); [4]): -4%
inhibition at 1 µM (FRAP1 (mTOR); [5]): -2%
inhibition at 1 µM (GSK3B (GSK3 beta); [3]): 61%
inhibition at 1 µM (GSK3B (GSK3 beta); [4]): 59%
inhibition at 1 µM (GSK3B (GSK3 beta); [5]): 62%
Structure (SMILES): Cc1cccc(CN(C)c2ncnc3[nH]c(-c4cn(Cc5cccnc5)nn4)cc23)c1 [Compound 27a, N-Methyl-N-(3-methylbenzyl)-6-(1-(pyridin-3-ylmethyl)-1H-1,2,3-triazol-4-yl)-7H-pyrrolo[2,3-d]pyrimidin-4-amine]
